Where two headings read alike, the source gives them in different places.

The target in experiment [1] is T1, RORγt (Homo sapiens, UniProt P51449).
T1 sequence (P51449 1-497 isoform P51449-2): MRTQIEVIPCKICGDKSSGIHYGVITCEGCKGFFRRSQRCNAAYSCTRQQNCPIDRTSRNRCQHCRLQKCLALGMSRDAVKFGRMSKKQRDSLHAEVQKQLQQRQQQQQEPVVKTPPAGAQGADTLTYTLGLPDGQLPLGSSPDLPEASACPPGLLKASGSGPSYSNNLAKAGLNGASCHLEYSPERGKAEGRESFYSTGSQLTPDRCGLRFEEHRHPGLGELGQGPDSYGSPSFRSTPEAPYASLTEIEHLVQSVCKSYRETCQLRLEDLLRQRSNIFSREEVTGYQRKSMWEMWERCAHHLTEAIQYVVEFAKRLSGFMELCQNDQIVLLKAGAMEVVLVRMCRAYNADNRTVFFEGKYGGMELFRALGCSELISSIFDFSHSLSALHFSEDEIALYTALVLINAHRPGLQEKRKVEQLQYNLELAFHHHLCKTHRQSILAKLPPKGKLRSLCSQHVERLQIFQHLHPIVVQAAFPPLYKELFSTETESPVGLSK
Briefly: RORγt binding test using fluorescent-labeled synthetic ligand (TR-FRET). The settings on record: read-out: Binding inhibitory rate of fluorescent-labeled synthetic ligand to RORγt at test compound 1 μM (%). In a few lines: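 His-tagged RORγt (diluted to 240 nM) with compound, then fluorescent synthetic ligand (diluted to 12 μM), 20 min at room temperature, followed by Tb anti-His antibody (diluted to 8 nM), 20 min.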

Experiment [2] concerns the target T1, RORγt. Briefly: Jurkat reporter test (human IL-17 ROR response element luciferase, RORγt vector). The format is cell-based. The conditions noted are these: read-out: Luminescence level inhibitory rate at test compound 3 μM (%). The gist of the method: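 Luminescence (Bright-Glo, 10 min, RT) was measured after overnight compound treatment of electroporated Jurkat cells (1350 V, 10 ms interval, 3 pulses). The reaction medium was RPMI with 10% lipid-reduced FCS, 10 mM HEPES (pH 7.5) and 5 μM lovastatin.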

In experiment [3] the target is T1, RORγt. Briefly: Cofactor recruitment test (Alpha Screen, biotinylated SRC-1 peptide). The settings on record: read-out: Signal value inhibitory rate at test compound 1 μM (%). The format is biochemical. How it is done: Cofactor Recruitment Test
Cofactor recruitment test was performed by Alpha Screen (Histidine Detection Kit, PerkinElmer) method. First, a test compound was diluted with an assay buffer (50 mM Tris-HCl (pH 7.5), 50 mM KCl, 1 mM DTT, 0.1% BSA) and added to a 384 well plate by 5 μL. […] The mixture was stood in a dark place for 1 hr, and the signal value was measured by Envision (PerkinElmer).

For experiment [4], the target named is T1, RORγt. Briefly: RORγt binding test using fluorescent-labeled cholesterol (TR-FRET). The conditions noted are these: read-out: Binding inhibitory rate of fluorescent-labeled cholesterol to RORγt at test compound 1 μM (%). The gist of the method:
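After 20 min at room temperature with His-tagged RORγt and BODIPY-cholesterol in pH 7.5 Tris buffer (NaCl, DTT, BSA), compound wells got terbium anti-His antibody for another 20 min. Time-resolved FRET was read with excitation 320 nm, emission 520 nm and a 100 µs delay.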

Where [5] appears, read: test compound 3 μM, Jurkat cells.

With `COc1ccc2c(n1)CCN(C(=O)Cc1cc(O)no1)[C@H]2C(=O)Nc1ccc([Si](C)(C)C)c(F)c1` [Example 80, (5R)-N-(3-fluoro-4-(trimethylsilyl)phenyl)-6-((3-hydroxy-1,2-oxazol-5-yl)acetyl)-2-methoxy-5,6,7,8-tetrahydro-1,6-naphthyridine-5-carboxamide], the figures for the inhibition at 1 µM in experiment [1], in experiment [3] and in experiment [4] were 102%, 97% and 102%, respectively. Also, the inhibition at 3 µM in experiment [2] (Jurkat) was found to be 100%.
With `CC[Si](C)(C)c1c(F)cc(NC(=O)[C@H]2c3ccc(OC)cc3CCN2C(=O)CCCC(=O)O)cc1F` [Example 86, 5-((1R)-1-((4-(ethyl(dimethyl)silyl)-3,5-difluorophenyl)carbamoyl)-6-methoxy-3,4-dihydroisoquinolin-2(1H)-yl)-5-oxopentanoic acid], the inhibition at 1 µM is 102% in experiment [1], 98% in experiment [3] and 103% in experiment [4]. In experiment [2] (Jurkat), the inhibition at 3 µM is 101%.
Take `COCC(C)(C)c1c(F)cc(NC(=O)[C@H]2c3ccc(OC)cc3CCN2C(=O)c2cc(O)no2)cc1F` [Example 97, (1R)-N-(3,5-difluoro-4-(1-methoxy-2-methylpropan-2-yl)phenyl)-2-((3-hydroxy-1,2-oxazol-5-yl)carbonyl)-6-methoxy-1,2,3,4-tetrahydroisoquinoline-1-carboxamide]: the values for the inhibition at 1 µM in experiment [1], in experiment [3] and in experiment [4] were 101%, 96% and 102%, respectively. For the same compound, the inhibition at 3 µM in experiment [2] (setting [5]) was 102%.
As to `COCC(C)(C)c1c(F)cc(NC(=O)[C@H]2c3ccc(OC)cc3CCN2C(=O)Cc2cc(O)no2)cc1F` [Example 98, (1R)-N-(3,5-difluoro-4-(1-methoxy-2-methylpropan-2-yl)phenyl)-2-((3-hydroxy-1,2-oxazol-5-yl)acetyl)-6-methoxy-1,2,3,4-tetrahydroisoquinoline-1-carboxamide], the inhibition at 1 µM was found to be 102% in experiment [1], 96% in experiment [3] and 99% in experiment [4]. For the same compound, the inhibition at 3 µM in experiment [2] (setting [5]) worked out at 102%.
In the case of `COCc1ccc2c(c1)CCN(C(=O)Cc1cc(O)no1)[C@H]2C(=O)Nc1ccc([Si](C)(C)C)c(F)c1` [Example 101, (1R)-N-(3-fluoro-4-(trimethylsilyl)phenyl)-2-((3-hydroxy-1,2-oxazol-5-yl)acetyl)-6-(methoxymethyl)-1,2,3,4-tetrahydroisoquinoline-1-carboxamide], the inhibition at 1 µM turned out to be 102% in experiment [1], 99% in experiment [3] and 102% in experiment [4]. Besides, in experiment [2] (Jurkat), the inhibition at 3 µM came out at 103%.
`COc1ccc2c(c1)CCN(C(=O)CC#N)[C@H]2C(=O)Nc1cc(F)c(C(C)(C)C(=O)N2CCCC2)c(F)c1` [Example 103, (1R)-2-(cyanoacetyl)-N-(3,5-difluoro-4-(2-methyl-1-oxo-1-(pyrrolidin-1-yl)propan-2-yl)phenyl)-6-methoxy-1,2,3,4-tetrahydroisoquinoline-1-carboxamide]: the inhibition at 1 µM in experiment [1] was determined as 101%; in experiment [3] it was 101%; in experiment [4] it was 104%. Besides, the inhibition at 3 µM in experiment [2] (setting [5]) is 102%.
Regarding `COc1ccc2c(c1)CCN(C(=O)CC(F)(F)F)[C@H]2C(=O)Nc1cc(F)c(C(C)(C)C(=O)N2CCCC2)c(F)c1` [Example 104, (1R)-N-(3,5-difluoro-4-(2-methyl-1-oxo-1-(pyrrolidin-1-yl)propan-2-yl)phenyl)-6-methoxy-2-(3,3,3-trifluoropropanoyl)-1,2,3,4-tetrahydroisoquinoline-1-carboxamide], the inhibition at 1 µM in experiment [1] was found to be 101%; in experiment [3], 101%; in experiment [4], 102%. The inhibition at 3 µM in experiment [2] (setting [5]) came to 102%.
On to `COc1ccc2c(c1)CCN(C(=O)Cc1cccnc1)[C@H]2C(=O)Nc1cc(F)c(C(C)(C)C(=O)N2CCCC2)c(F)c1` [Example 105, (1R)-N-(3,5-difluoro-4-(2-methyl-1-oxo-1-(pyrrolidin-1-yl)propan-2-yl)phenyl)-6-methoxy-2-(pyridin-3-ylacetyl)-1,2,3,4-tetrahydroisoquinoline-1-carboxamide], for which the values for the inhibition at 1 µM in experiment [1], in experiment [3] and in experiment [4] were 101%, 100% and 103%, respectively. Besides, in experiment [2] (setting [5]), the inhibition at 3 µM came out at 101%.
`COc1ccc2c(c1)CCN(C(=O)Cc1nnc(C)o1)[C@H]2C(=O)Nc1cc(F)c(C(C)(C)C(=O)N2CCCC2)c(F)c1` [Example 106, (1R)-N-(3,5-difluoro-4-(2-methyl-1-oxo-1-(pyrrolidin-1-yl)propan-2-yl)phenyl)-6-methoxy-2-((5-methyl-1,3,4-oxadiazol-2-yl)acetyl)-1,2,3,4-tetrahydroisoquinoline-1-carboxamide]: the inhibition at 1 µM in experiment [1] worked out at 101%; in experiment [3] it was 101%; in experiment [4], 102%. For the same compound, the inhibition at 3 µM in experiment [2] (setting [5]) came out at 102%.
In the case of `COCc1ccc2c(c1)CCN(C(=O)c1cc(O)no1)[C@H]2C(=O)Nc1ccc([Si](C)(C)C)c(F)c1` [Example 107, (1R)-N-(3-fluoro-4-(trimethylsilyl)phenyl)-2-((3-hydroxy-1,2-oxazol-5-yl)carbonyl)-6-(methoxymethyl)-1,2,3,4-tetrahydroisoquinoline-1-carboxamide], the inhibition at 1 µM is 102% in experiment [1], 100% in experiment [3] and 103% in experiment [4]. Moreover, the inhibition at 3 µM in experiment [2] (Jurkat) turned out to be 102%.
`COCc1ccc2c(c1)CCN(C(=O)CCCC(=O)O)[C@H]2C(=O)Nc1ccc([Si](C)(C)C)c(F)c1` [Example 110, 5-((1R)-1-((3-fluoro-4-(trimethylsilyl)phenyl)carbamoyl)-6-(methoxymethyl)-3,4-dihydroisoquinolin-2 (1H)-yl)-5-oxopentanoic acid]: the inhibition at 1 µM in experiment [1] was found to be 102%; in experiment [3] it was 100%; in experiment [4] it was 102%. Besides, in experiment [2] (Jurkat), the inhibition at 3 µM is 103%.
Turning to `CC[Si](C)(C)c1c(F)cc(NC(=O)[C@H]2c3ccc(OC)nc3CCN2C(=O)c2cc(O)no2)cc1F` [Example 111, (5R)-N-(4-(ethyl (dimethyl)silyl)-3,5-difluorophenyl)-6-((3-hydroxy-1,2-oxazol-5-yl)carbonyl)-2-methoxy-5,6,7,8-tetrahydro-1,6-naphthyridine-5-carboxamide], the inhibition at 1 µM was 101% in experiment [1], 99% in experiment [3] and 103% in experiment [4]. Further, the inhibition at 3 µM in experiment [2] (Jurkat) was determined as 103%.
`CC[Si](C)(C)c1c(F)cc(NC(=O)[C@H]2c3ccc(OC)nc3CCN2C(=O)CCCC(=O)O)cc1F` [Example 114, 5-((5R)-5-((4-(ethyl(dimethyl)silyl)-3,5-difluorophenyl)carbamoyl)-2-methoxy-7,8-dihydro-1,6-naphthyridin-6(5H)-yl)-5-oxopentanoic acid]: the inhibition at 1 µM in experiment [1] came to 102%; in experiment [3] it was 98%; in experiment [4], 103%. Further, in experiment [2] (Jurkat), the inhibition at 3 µM was determined as 101%.
Consider `COc1ccc2c(n1)CCN(C(=O)c1cc(O)no1)[C@H]2C(=O)Nc1cc(F)c2c(c1)CCC2(C)C` [Example 115, (5R)-N-(7-fluoro-1,1-dimethyl-2,3-dihydro-1H-inden-5-yl)-6-((3-hydroxy-1,2-oxazol-5-yl)carbonyl)-2-methoxy-5,6,7,8-tetrahydro-1,6-naphthyridine-5-carboxamide], for which the inhibition at 1 µM in experiment [1] turned out to be 101%; in experiment [3] it was 89%; in experiment [4] it was 103%. Besides, the inhibition at 3 µM in experiment [2] (setting [5]) was determined as 102%.
For `COc1ccc2c(n1)CCN(C(=O)Cc1cc(O)no1)[C@H]2C(=O)Nc1cc(F)c2c(c1)CCC2(C)C` [Example 117, (5R)-N-(7-fluoro-1,1-dimethyl-2,3-dihydro-1H-inden-5-yl)-6-((3-hydroxy-1,2-oxazol-5-yl)acetyl)-2-methoxy-5,6,7,8-tetrahydro-1,6-naphthyridine-5-carboxamide] the same measures were 102%, 87%, 102% and 101%.

Source of the values: US10053468B2, “Heterocyclic compound” (TAKEDA PHARMACEUTICAL COMPANY LIMITED, priority 2013, dated 2018).
